Measured values as given in ChEMBL document CHEMBL4627388, “Structural Specificity of Flavonoids in the Inhibition of Human Fructose 1,6-Bisphosphatase” (J Nat Prod, 2020).

Tests used:
[1] = target: T1, Fructose-1,6-bisphosphatase 1 (Homo sapiens) (UniProt P09467); test: Inhibition of human liver FBP1 at 200 uM incubated for 5 mins by fluorescence method relative to control
T1 sequence (whole entry): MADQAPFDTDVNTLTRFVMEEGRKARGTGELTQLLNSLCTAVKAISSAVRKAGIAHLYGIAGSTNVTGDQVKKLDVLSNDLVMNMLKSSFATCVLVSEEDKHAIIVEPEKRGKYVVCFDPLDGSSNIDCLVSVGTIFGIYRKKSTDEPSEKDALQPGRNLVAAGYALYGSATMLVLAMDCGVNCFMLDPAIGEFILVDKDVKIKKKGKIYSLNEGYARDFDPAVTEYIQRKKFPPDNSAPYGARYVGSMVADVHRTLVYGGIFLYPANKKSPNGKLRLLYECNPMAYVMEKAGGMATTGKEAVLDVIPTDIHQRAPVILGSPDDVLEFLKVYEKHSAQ

[2] = target: T2, Fructose-1,6-bisphosphatase 1 (Homo sapiens, UniProt P09467); test: Inhibition of human liver FBP1 incubated for 5 mins by fluorescence method
T2 sequence (P09467 whole entry): T1 sequence (whole entry)

Compound | inhibition [1] | IC50 [2]
O=c1cc(-c2ccc(O)c(O)c2)oc2c(Cl)c(O)cc(O)c12 | < 20% | 
COc1ccc(-c2oc3ccccc3c(=O)c2O)cc1OC | < 20% | 
O=c1c(Cl)c(-c2ccc(O)c(O)c2)oc2c(Cl)c(O)cc(O)c12 | < 20% | 
O=c1c(O)c(-c2ccc(O)cc2O)oc2cc(O)cc(O)c12 | < 20% | 
O=c1cc(-c2ccccc2)oc2ccccc12 | < 20% | 
O=c1cc(-c2ccccc2)oc2c(O)c(O)cc(O)c12 | < 20% | 
O=c1cc(-c2ccc(O)c(O)c2)oc2cccc(O)c12 | < 20% | 
O=c1cc(-c2ccc(O)c(O)c2)oc2cc(O)c(Cl)c(O)c12 | < 20% | 
O=c1c(O)c(-c2cc(O)c(O)c(O)c2)oc2cc(O)cc(O)c12 | < 20% | 
O=C1C[C@@H](c2ccc(O)c(O)c2)Oc2cc(O)cc(O)c21 | < 20% | 
O=c1c(Cl)c(-c2ccc(O)c(O)c2)oc2c(Cl)c(O)c(Cl)c(O)c12 | < 20% | 
O=c1cc(-c2ccc(O)cc2)oc2cc(O)cc(O)c12 | < 20% | 
COc1ccc(-c2cc(=O)c3c(O)cc(O)cc3o2)cc1 | < 20% | 
COc1ccc2c(=O)c(O)c(-c3ccc(O)c(O)c3)oc2c1OC | < 20% | 
O=c1c(O)c(-c2cccc(O)c2)oc2cc(O)cc(O)c12 | < 20% | 
O=c1cc(-c2ccc(O)c(O)c2)oc2ccccc12 | 25% | 
O=c1cc(-c2ccccc2)oc2cc(O)c(O)c(O)c12 [BAICALEIN] |  | 29 µM
O=C(O)[C@H]1O[C@@H](Oc2cc3oc(-c4ccccc4)cc(=O)c3c(O)c2O)[C@H](O)[C@@H](O)[C@@H]1O | < 20% | 
O=c1c(O)c(-c2ccc(O)c(O)c2)oc2cc(O)c(O)c(O)c12 | 37% | 

Compound | inhibition [1] | IC50 [2]
COc1ccc(-c2oc3c(OCc4ccccc4)c(OCc4ccccc4)ccc3c(=O)c2O)cc1OC | < 20% | 
O=C1C[C@@H](c2ccc(O)cc2)Oc2cc(O)cc(O)c21 | < 20% | 
O=c1c(O)c(-c2ccc(O)c(O)c2)oc2c(O[C@@H]3O[C@H](CO)[C@@H](O)[C@H](O)[C@H]3O)c(O)cc(O)c12 | < 20% | 
COc1ccc2c(=O)c(O)c(-c3ccc(OCc4ccccc4)c(OCc4ccccc4)c3)oc2c1OC | < 20% | 
O=c1c(O)c(-c2ccc(O)cc2)oc2c(O)c(O)cc(O)c12 [HERBACETIN] |  | 8.7 µM
O=c1cc(-c2ccc(O)cc2)oc2cccc(O)c12 | < 20% | 
COc1ccc(-c2oc3cc(OC)ccc3c(=O)c2O)cc1 | < 20% | 
O=c1cc(-c2ccccc2)oc2cc(O)ccc12 | < 20% | 
Nc1ncnc2c1ncn2[C@@H]1O[C@H](COP(=O)(O)O)[C@@H](O)[C@H]1O [ADENOSINE PHOSPHATE] |  | 2.6 µM
COc1ccc(-c2cc(=O)c3c(O)cc(O)cc3o2)cc1OC | < 20% | 
COc1cc2oc(-c3ccccc3)cc(=O)c2c(OC)c1OC | < 20% | 
O=c1cc(-c2ccc(O)cc2)oc2cc(O)c(O)c(O)c12 [SCUTELLAREIN] |  | 38.2 µM
O=c1c(O)c(-c2ccc(O)cc2)oc2cc(O)cc(O)c12 | < 20% | 
O=c1cc(-c2cccc(O)c2)oc2cccc(O)c12 | < 20% | 
O=c1cc(-c2ccc(O)c(O)c2)oc2cc(O)ccc12 | < 20% | 
COc1ccc(-c2oc3c(O)c(O)ccc3c(=O)c2O)cc1OC | 33% | 
O=c1c(O)c(-c2cccc(O)c2)oc2cc(O)ccc12 | < 20% | 
O=C1c2c(O)cc(O)cc2O[C@H](c2ccc(O)c(O)c2)[C@H]1O | < 20% | 
O=c1cc(-c2ccc(O)cc2)oc2ccccc12 | < 20% | 

Compound | inhibition [1] | IC50 [2]
O=c1c(O)c(-c2ccc(O)c(O)c2)oc2ccccc12 | 20% | 
O=c1cc(-c2ccccc2)oc2cc(O)cc(O)c12 | < 20% | 
COc1cc2oc(-c3ccccc3)cc(=O)c2c(O)c1O | 46% | 
O=c1c(Cl)c(-c2ccc(O)c(O)c2)oc2cc(O)cc(O)c12 | < 20% | 
O=c1cc(-c2ccccc2)oc2cccc(O)c12 | < 20% | 
O=c1c(O)c(-c2ccc(O)c(O)c2)oc2c(O)c(O)cc(O)c12 [GOSSYPETIN] |  | 24 µM
COc1cccc(-c2oc3cc(OC)ccc3c(=O)c2O)c1 | < 20% | 
O=c1cc(-c2cccc(O)c2)oc2cc(O)ccc12 | < 20% | 
O=c1c(O)c(-c2ccc(O)cc2)oc2cc(O)ccc12 | < 20% | 
O=c1c(O)c(-c2ccccc2)oc2cc(O)cc(O)c12 | < 20% | 
Oc1ccc(-c2[o+]c3c(O)c(O)cc(O)c3cc2O)cc1O | 46% | 
COc1cc(-c2cc(=O)c3c(O)cc(O)cc3o2)ccc1O | < 20% | 
O=c1c(O)c(-c2ccc(O)c(O)c2)oc2c(O)c(O)ccc12 | < 20% | 
O=c1cc(-c2cccc(O)c2)oc2ccccc12 | < 20% | 
O=c1cc(-c2ccc(O)cc2)oc2cc(O)ccc12 | < 20% | 
C[C@@H]1O[C@@H](OC[C@H]2O[C@@H](Oc3c(-c4ccc(O)c(O)c4)oc4cc(O)cc(O)c4c3=O)[C@H](O)[C@@H](O)[C@@H]2O)[C@H](O)[C@H](O)[C@H]1O | < 20% | 
O=c1cc(-c2ccc(O)c(O)c2)oc2cc(O)cc(O)c12 | 22% | 
O=c1c(O)c(-c2ccc(O)c(O)c2)oc2cc(O)cc(O)c12 | < 20% | 
